# Where a SMILES comes first, the peptide text is derived from it. [ ]: non-standard residue; d: D form. The star is where a group is joined. NHCH2CH2OH = OCCN*; For = O=C*
# Columns and labels:
# [1] = H+/Na+ transport assay of bead-derived peptides (one-point); format: biochemical; design: key: relative activity; mean of two control wells = 1.00; conditions: bead-derived peptide solution, EYPC/EYPG LUVs;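 note: relative to parent gramicidin A activity set to 1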
# Outline: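 Pyranine (1.0 mM)-loaded LUVs containing egg yolk phosphatidylglycerol were prepared by film hydration, sonication and extrusion, then mixed with diluted bead-derived peptide in 96-well format and vortexed 30 min at room temperature. Fluorescence was normalized between untreated LUVs (0%) and Triton X-100 lysis (100%).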
# [2] = test system: P388 mouse leukemia cells; conditions: 92 h
# Outline: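 Peptide stocks diluted 250× in growth medium; P388 cells 1 × 10^4 cells/mL final; 37 °C, 5% CO2, 92 h. WST-1 + 1-methoxy PMS, 4 h, A415. Output: % viability.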
# [3] = test system: Streptococcus pyogenes SSI-9; assay: Antibacterial activity assay of bead-derived peptides (three concentrations); format: cell-based; design: key: +++: inhibition by the 640-fold diluted peptide solution; ++: inhibition by the 160-fold diluted solution; +: inhibition by the 40-fold diluted solution; -: no inhibition; conditions: S. pyogenes, bead-derived peptide solution, three concentrations
# Outline: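 Growth inhibition scored visually as precipitated bacteria after 37 °C, 18 h incubation. Streptococcus pyogenes SSI-9 inoculum of 2 × 10^5 CFU in Ca2+/Mg2+-adjusted Mueller Hinton broth plus 5% laked horse blood; peptides tested at three levels: stock, 4-fold and 16-fold DMSO dilutions.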
Structure (SMILES),H+/Na+ transport activity normalized against the value of 1 (1.00) [1],cell viability/% [2] [%],antibacterial activity [3]
CC(C)C[C@@H](NC(=O)[C@H](C)NC(=O)CNC(=O)[C@@H](NC=O)C(C)C)C(=O)N[C@@H](C)C(=O)N[C@@H](C(=O)N[C@H](C(=O)N[C@@H](C(=O)N[C@@H](Cc1c[nH]c2ccccc12)C(=O)N[C@@H](C(=O)N[C@@H](Cc1c[nH]c2ccccc12)C(=O)N[C@@H](C(=O)N[C@@H](Cc1c[nH]c2ccccc12)C(=O)N[C@H](CC(C)C)C(=O)N[C@@H](Cc1c[nH]c2ccccc12)C(=O)NCCO)C(C)C)C(C)C)[C@H](C)O)C(C)C)C(C)C [compound 4778] (For-VGA[dL]A[dV]V[dT]W[dV]W[dV]W[dL]W-NHCH2CH2OH),1.09,100.0,-
CC(C)[C@H](NC=O)C(=O)NCC(=O)N[C@@H](C)C(=O)N[C@@H](C(=O)N[C@@H](C)C(=O)N[C@@H](C(=O)N[C@H](C(=O)N[C@@H](C(=O)N[C@@H](Cc1c[nH]c2ccccc12)C(=O)N[C@@H](C(=O)N[C@@H](Cc1c[nH]c2ccccc12)C(=O)N[C@@H](C(=O)N[C@@H](Cc1c[nH]c2ccccc12)C(=O)N[C@@H](C(=O)N[C@@H](Cc1c[nH]c2ccccc12)C(=O)NCCO)C(C)C)C(C)C)[C@H](C)O)C(C)C)C(C)C)C(C)C)C(C)C [compound 5205] (For-VGA[dV]A[dV]V[dV]W[dT]W[dV]W[dV]W-NHCH2CH2OH),1.22,100.0,-
CC(C)C[C@@H](NC(=O)[C@H](Cc1c[nH]c2ccccc12)NC(=O)[C@H](NC(=O)[C@H](Cc1c[nH]c2ccccc12)NC(=O)[C@H](NC(=O)[C@H](Cc1c[nH]c2ccccc12)NC(=O)[C@H](NC(=O)[C@@H](NC(=O)[C@H](NC(=O)[C@H](C)NC(=O)[C@H](NC(=O)[C@H](C)NC(=O)CNC(=O)[C@@H](NC=O)C(C)C)C(C)C)[C@H](C)O)C(C)C)C(C)C)C(C)C)C(C)C)C(=O)N[C@@H](Cc1c[nH]c2ccccc12)C(=O)NCCO [compound 13062] (For-VGA[dV]A[dT]V[dV]W[dV]W[dV]W[dL]W-NHCH2CH2OH),1.06,92.8,-
CC(C)C[C@@H](NC(=O)[C@H](C)NC(=O)CNC(=O)[C@@H](NC=O)C(C)C)C(=O)N[C@@H](C)C(=O)N[C@H](CC(C)C)C(=O)N[C@H](C(=O)N[C@@H](C(=O)N[C@@H](Cc1c[nH]c2ccccc12)C(=O)N[C@@H](C(=O)N[C@@H](Cc1c[nH]c2ccccc12)C(=O)N[C@@H](C(=O)N[C@@H](Cc1c[nH]c2ccccc12)C(=O)N[C@H](CC(C)C)C(=O)N[C@@H](Cc1c[nH]c2ccccc12)C(=O)NCCO)C(C)C)[C@H](C)O)C(C)C)C(C)C [compound 10542] (For-VGA[dL]A[dL]V[dV]W[dT]W[dV]W[dL]W-NHCH2CH2OH),1.02,100.0,-
CC(C)C[C@@H](NC(=O)[C@H](C)NC(=O)CNC(=O)[C@@H](NC=O)C(C)C)C(=O)N[C@@H](C)C(=O)N[C@H](CC(C)C)C(=O)N[C@H](C(=O)N[C@H](CC(C)C)C(=O)N[C@@H](Cc1c[nH]c2ccccc12)C(=O)N[C@H](CC(C)C)C(=O)N[C@@H](Cc1c[nH]c2ccccc12)C(=O)N[C@@H](C(=O)N[C@@H](Cc1c[nH]c2ccccc12)C(=O)N[C@@H](C(=O)N[C@@H](Cc1c[nH]c2ccccc12)C(=O)NCCO)C(C)C)C(C)C)C(C)C [compound 4313] (For-VGA[dL]A[dL]V[dL]W[dL]W[dV]W[dV]W-NHCH2CH2OH),1.21,3.2,+
CNC(=O)C[C@@H](NC(=O)[C@@H](NC(=O)[C@@H](CC(C)C)NC(=O)[C@H](C)NC(=O)[C@@H](CC(C)C)NC(=O)[C@H](C)NC(=O)CNC(=O)[C@@H](NC=O)C(C)C)C(C)C)C(=O)N[C@@H](Cc1c[nH]c2ccccc12)C(=O)N[C@H](CC(C)C)C(=O)N[C@@H](Cc1c[nH]c2ccccc12)C(=O)N[C@H](CC(C)C)C(=O)N[C@@H](Cc1c[nH]c2ccccc12)C(=O)N[C@H](CC(C)C)C(=O)N[C@@H](Cc1c[nH]c2ccccc12)C(=O)NCCO [compound 8061] (For-VGA[dL]A[dL]V[dD](NHMe)W[dL]W[dL]W[dL]W-NHCH2CH2OH),1.05,100.0,-
CNC(=O)C[C@@H](NC(=O)[C@@H](NC(=O)[C@H](NC(=O)[C@H](C)NC(=O)[C@H](NC(=O)[C@H](C)NC(=O)CNC(=O)[C@@H](NC=O)C(C)C)C(C)C)C(C)C)C(C)C)C(=O)N[C@@H](Cc1c[nH]c2ccccc12)C(=O)N[C@H](CC(C)C)C(=O)N[C@@H](Cc1c[nH]c2ccccc12)C(=O)N[C@H](CC(C)C)C(=O)N[C@@H](Cc1c[nH]c2ccccc12)C(=O)N[C@@H](C(=O)N[C@@H](Cc1c[nH]c2ccccc12)C(=O)NCCO)C(C)C [compound 12373] (For-VGA[dV]A[dV]V[dD](NHMe)W[dL]W[dL]W[dV]W-NHCH2CH2OH),1.04,100.0,-
CNC(=O)C[C@@H](NC(=O)[C@@H](NC(=O)[C@H](NC(=O)[C@H](C)NC(=O)[C@H](NC(=O)[C@H](C)NC(=O)CNC(=O)[C@@H](NC=O)C(C)C)C(C)C)C(C)C)C(C)C)C(=O)N[C@@H](Cc1c[nH]c2ccccc12)C(=O)N[C@H](CC(C)C)C(=O)N[C@@H](Cc1c[nH]c2ccccc12)C(=O)N[C@@H](C(=O)N[C@@H](Cc1c[nH]c2ccccc12)C(=O)N[C@@H](C(=O)N[C@@H](Cc1c[nH]c2ccccc12)C(=O)NCCO)C(C)C)C(C)C [compound 8057] (For-VGA[dV]A[dV]V[dD](NHMe)W[dL]W[dV]W[dV]W-NHCH2CH2OH),1.13,100.0,-
CC(C)C[C@@H](NC(=O)[C@H](C)NC(=O)CNC(=O)[C@@H](NC=O)C(C)C)C(=O)N[C@@H](C)C(=O)N[C@H](CC(C)C)C(=O)N[C@H](C(=O)N[C@@H](C(=O)N[C@@H](Cc1c[nH]c2ccccc12)C(=O)N[C@@H](C(=O)N[C@@H](Cc1c[nH]c2ccccc12)C(=O)N[C@H](CC(C)C)C(=O)N[C@@H](Cc1c[nH]c2ccccc12)C(=O)N[C@H](CC(C)C)C(=O)N[C@@H](Cc1c[nH]c2ccccc12)C(=O)NCCO)[C@H](C)O)C(C)C)C(C)C [compound 7067] (For-VGA[dL]A[dL]V[dV]W[dT]W[dL]W[dL]W-NHCH2CH2OH),1.02,100.0,-
CC(C)C[C@@H](NC(=O)[C@H](C)NC(=O)CNC(=O)[C@@H](NC=O)C(C)C)C(=O)N[C@@H](C)C(=O)N[C@@H](C(=O)N[C@H](C(=O)N[C@@H](C(=O)N[C@@H](Cc1c[nH]c2ccccc12)C(=O)N[C@@H](C(=O)N[C@@H](Cc1c[nH]c2ccccc12)C(=O)N[C@@H](C(=O)N[C@@H](Cc1c[nH]c2ccccc12)C(=O)N[C@@H](C(=O)N[C@@H](Cc1c[nH]c2ccccc12)C(=O)NCCO)C(C)C)C(C)C)C(C)C)[C@H](C)O)C(C)C)C(C)C [compound 12429] (For-VGA[dL]A[dV]V[dT]W[dV]W[dV]W[dV]W-NHCH2CH2OH),1.03,100.0,-
CNC(=O)C[C@@H](NC(=O)[C@@H](NC(=O)[C@H](NC(=O)[C@H](C)NC(=O)[C@@H](CC(C)C)NC(=O)[C@H](C)NC(=O)CNC(=O)[C@@H](NC=O)C(C)C)C(C)C)C(C)C)C(=O)N[C@@H](Cc1c[nH]c2ccccc12)C(=O)N[C@@H](C(=O)N[C@@H](Cc1c[nH]c2ccccc12)C(=O)N[C@H](CC(C)C)C(=O)N[C@@H](Cc1c[nH]c2ccccc12)C(=O)N[C@@H](C(=O)N[C@@H](Cc1c[nH]c2ccccc12)C(=O)NCCO)C(C)C)C(C)C [compound 5185] (For-VGA[dL]A[dV]V[dD](NHMe)W[dV]W[dL]W[dV]W-NHCH2CH2OH),1.40,100.0,-
CNC(=O)C[C@@H](NC(=O)[C@@H](NC(=O)[C@@H](CC(C)C)NC(=O)[C@H](C)NC(=O)[C@H](NC(=O)[C@H](C)NC(=O)CNC(=O)[C@@H](NC=O)C(C)C)C(C)C)C(C)C)C(=O)N[C@@H](Cc1c[nH]c2ccccc12)C(=O)N[C@H](CC(C)C)C(=O)N[C@@H](Cc1c[nH]c2ccccc12)C(=O)N[C@@H](C(=O)N[C@@H](Cc1c[nH]c2ccccc12)C(=O)N[C@@H](C(=O)N[C@@H](Cc1c[nH]c2ccccc12)C(=O)NCCO)C(C)C)C(C)C [compound 11349] (For-VGA[dV]A[dL]V[dD](NHMe)W[dL]W[dV]W[dV]W-NHCH2CH2OH),1.00,34.3,-
CNC(=O)C[C@@H](NC(=O)[C@@H](NC(=O)[C@H](NC(=O)[C@H](C)NC(=O)[C@H](NC(=O)[C@H](C)NC(=O)CNC(=O)[C@@H](NC=O)C(C)C)C(C)C)C(C)C)C(C)C)C(=O)N[C@@H](Cc1c[nH]c2ccccc12)C(=O)N[C@H](CC(C)C)C(=O)N[C@@H](Cc1c[nH]c2ccccc12)C(=O)N[C@H](CC(C)C)C(=O)N[C@@H](Cc1c[nH]c2ccccc12)C(=O)N[C@@H](C(=O)N[C@@H](Cc1c[nH]c2ccccc12)C(=O)NCCO)C(C)C [compound 6899] (For-VGA[dV]A[dV]V[dD](NHMe)W[dL]W[dL]W[dV]W-NHCH2CH2OH),1.12,100.0,-
